Publication PMC9254721, “Global update on the susceptibilities of human influenza viruses to neuraminidase inhibitors and the cap-dependent endonuclease inhibitor baloxavir, 2018–2020” (Antiviral research, 2022)

Tests used:
[1] = tested on: B/Yamagata-lineage virus neuraminidase (NA); assay type: biochemical, influenza B/Yamagata-lineage virus
[2] = tested on: A(H1N2)v viruses; assay type: cell-based
[3] = tested on: influenza viruses; assay type: cell-based, influenza virus

| SMILES | inhibition phenotype (NI/RI/HRI) [1] | baloxavir susceptibility [2] | fold increase compared to the respective median EC50 [3] [fold] |
| --- | --- | --- | --- |
| CC(=O)N[C@H]1[C@H]([C@H](O)[C@H](O)CO)OC(C(=O)O)=C[C@@H]1N=C(N)N [Zanamivir, zanamivir] | RI (key: normal inhibition (NI) is a <5-fold increase in the NAI IC50; RI is a 5- to 50-fold increase; HRI is a >50-fold increase) | – | – |
| COC(=O)OCOc1c2n(ccc1=O)N([C@@H]1c3ccccc3SCc3c1ccc(F)c3F)[C@@H]1COCCN1C2=O [baloxavir, baloxavir marboxil] | – | susceptible | < 3 |
